Laboratory results from patent US20190084968A1, “FUMAGILLOL HETEROCYCLIC COMPOUNDS AND METHODS OF MAKING AND USING SAME” (Zafgen, Inc., priority 2015, published 2019).
Several values for one entry are separate records, joined by “and”; a condition that tells them apart may be missing. Equal values may be shown once. Where a name gives a salt, the structure may show the parent alone.

Key:
[1] = tested on: embryo/fetal development in pregnant Sprague Dawley rats; conditions: 6 mpk subcutaneously once every three days, Gestation Days 6-18, pregnant rats
Method: The objective of this study design was to evaluate the potential effects of disclosed compounds on embryo/fetal development when given subcutaneously to pregnant rats once every three days during the critical period of organogenesis (Gestation Days 6-18). Female, Sprague Dawley rats, approximately 10 weeks of age, time bred, were ordered from a certified vendor and housed individually housed in stainless steel cages suspended over flush pans, on a 12-hour light-dark cycle (0700-1900) at 20-26° C. and 30-70% humidity. Rats were fed a standard rodent chow and provided water ad libitum. Rats were received and housed in the facility for a period of approximately 1 to 2 days.
Compounds were formulated using 100% DMSO mixed in Sterile Water for Injection, resulting in 2% DMSO solution in water. If necessary, due to limited solubility of a test article, a higher percentage of DMSO solution in water was used. Groups of 8 mated and presumed pregnant female rats were given subcutaneous doses of vehicle or test article, once every three days, beginning on Gestation Day 6 and ending on Gestation Day 18 (Days 6, 9, 12, 15, and 18), maintained two more days, and then euthanized and necropsied on Gestation Day 20. Body weights was recorded for all animals on Gestation Days 5 (purpose of randomization), 6, 9, 12, 15, 18, and 20 (scheduled euthanasia). Food consumption by weight was recorded on Gestation Days 6, 9, 12, 15, 18, and 20 (scheduled termination).
At necropsy, the dams were examined visually for external abnormalities including palpable masses. The abdominal, thoracic, and cranial cavities and their contents were examined for abnormalities and findings will be recorded. The reproductive tract were examined to record the number of ovarian corpora lutea, the number and location of uterine implantation sites noting the position of the cervix, and the number of early resorptions, late resorptions, live fetuses, and dead fetuses. For dead fetuses and late resorptions, crown-to-rump length and weight were recorded, if possible, and the fetus was discarded. For viable fetuses, weight, sex, and grossly visible external abnormalities were recorded.

[2] = tested on: Diet Induced Obese (DIO) C57BL/6 mice; experiment: 10 day DIO mouse model (body weight, food intake, hematology, blood chemistry); type: in vivo
Excerpt: The objective of this study design was to investigate the efficacy of disclosed compounds in a 10 day DIO mouse model. Effects on body weight, food intake, hematology and blood chemistry were the primary readouts of this study design. […] Mice were fed Research Diets D12492 (60% Kcal fat, 20% Kcal carbohydrate and 20% protein) and provided water ad libitum. DIO mice were received and housed in the facility for approximately two weeks prior to the start of test article administration. On Day −4 or −3, mice were randomized into study groups based on body weight and body weights were continued to be recorded daily for the duration of the study. Daily food intake was assessed starting on Study Day −2 by weighing of the food with hopper together to avoid loss of food in transfer.
(§1) Compounds were formulated into a 100% DMSO stock (at 9 mg/mL) prior to the start, and further diluted into the target working concentration using the vehicle of 10% DMSO in water. Prior to test article administration, starting on Day −3 a dosing acclimation occured with all animals receiving a subcutaneous injection of vehicle (10% DMSO) only for 3 days. Starting on Day 1, test compounds or vehicle were administered based on individual body weight, subcutaneously, once a day for 10 days. All mice were sacrificed on Day 11, 24 hours following the final dosing on Day 10. After sacrifice, whole blood was collected and analyzed for hematology and blood chemistry parameters.
(§2) Compounds were tested vs. vehicle at various doses (1.0, 0.5, 0.3, 0.1, 0.03 mpk sc (mg per kg animal weight delivered subcutaneously), and the results are shown in Table 2 below.

[3] = tested on: Sprague Dawley rats on high fat diet (DIO); experiment: 11 day rat DIO model (body weight, food intake, hematology, blood chemistry); type: in vivo
Excerpt: The objective of this study design is to investigate the efficacy of disclosed compounds in an 11 day rat DIO model used to screen compounds for pharmacologic efficacy on endpoints related to obesity and metabolism. Effects on body weight, food intake, hematology and blood chemistries were the primary readouts of this study design. […] Rats were fed Research Diets D12451 (45% High Fat) and provided water ad libitum. Rats were received and housed in the facility for at least two or three weeks prior to start of test article administration. On Day −4 or −3, rats were randomized into study groups based on body weight and body weights were continued to be recorded daily for the duration of the study. Daily food intake was assessed starting on Study Day −2 by weighing the hopper including the food to avoid loss of food in transfer.
as §1, with “for 11” for “for 10”, “All animals” for “All mice”, “11, approximately 2” for “11, 24”, “Day 11.” for “Day 10.”
as §2

In the case of `CO[C@@H]1[C@H](OC(=O)/C=C/c2ccc(OCCN(C)C)cc2)CC[C@]2(CO2)[C@H]1[C@@]1(C)O[C@@H]1CC=C(C)C` [compound A, [(3R,6R,7S,8S)-7-methoxy-8-[(2R,3R)-2-methyl-3-(3-methylbut-2-enyl)oxiran-2-yl]-2-oxaspiro[2.5]octan-6-yl] (E)-3-[4-[2-(dimethylamino)ethoxy]phenyl]prop-2-enoate, reference compound], the “Rat Embryofetal @6 mpk” value [1] is reported as “Positive”.
For `CCN(CC)CCC1CN(C(=O)O[C@@H]2CC[C@]3(CO3)[C@@H]([C@@]3(C)O[C@@H]3CC=C(C)C)[C@@H]2OC)C1` [Example 103, (3R,4S,5S,6R)-5-methoxy-4-((2R,3R)-2-methyl-3-(3-methylbut-2-enyl)oxiran-2-yl)-1-oxaspiro[2.5]octan-6-yl 3-(2-(diethylamino)ethyl)azetidine-1-carboxylate], the “Rat Embryofetal @6 mpk” value [1] was “Positive”.
With `CNC(=O)OC1CN(C(=O)O[C@@H]2CC[C@]3(CO3)[C@@H]([C@@]3(C)O[C@@H]3CC=C(C)C)[C@@H]2OC)C1` [Example 74, (3R,4S,5S,6R)-5-methoxy-4-((2R,3R)-2-methyl-3-(3-methylbut-2-enyl)oxiran-2-yl)-1-oxaspiro[2.5]octan-6-yl 3-(methylcarbamoyloxy)azetidine-1-carboxylate] the “Rat Embryofetal @6 mpk” value [1] was “Negative”.
In the case of `CO[C@@H]1[C@H](OC(=O)N2CC(CCN3CCC(O)CC3)C2)CC[C@]2(CO2)[C@H]1[C@@]1(C)O[C@@H]1CC=C(C)C` [Example 7, (3R,4S,5S,6R)-5-methoxy-4-((2R,3R)-2-methyl-3-(3-methylbut-2-en-1-yl)oxiran-2-yl)-1-oxaspiro[2.5]octan-6-yl 3-(2-(4-hydroxypiperidin-1-yl)ethyl)azetidine-1-carboxylate], the “DIO Mouse 10-day weight loss vs vehicle at indicated dose” value (from here on “DIO Mouse 10-day weight loss vs vehicle”) ([2]; DIO mouse, 0.3 mpk sc, once a day for 10 days) is reported as 1.8%.
For `CO[C@@H]1[C@H](OC(=O)N2CC(CCN3CC(F)(F)C3)C2)CC[C@]2(CO2)[C@H]1[C@@]1(C)O[C@@H]1CC=C(C)C` [Example 2, (3R,4S,5S,6R)-5-methoxy-4-((2R,3R)-2-methyl-3-(3-methylbut-2-enyl)oxiran-2-yl)-1-oxaspiro[2.5]octan-6-yl 3-(2-(3,3-difluoroazetidin-1-yl)ethyl)azetidine-1-carboxylate], the “Rat Embryofetal @6 mpk” value [1] was “Negative”.
With `CCN(CC)CCC1CCN1C(=O)O[C@@H]1CC[C@]2(CO2)[C@@H]([C@@]2(C)O[C@@H]2CC=C(C)C)[C@@H]1OC` (stereo partly drawn) [Example 106, (3R,4S,5S,6R)-5-methoxy-4-((2R,3R)-2-methyl-3-(3-methylbut-2-enyl)oxiran-2-yl)-1-oxaspiro[2.5]octan-6-yl 2-(2-(diethylamino)ethyl)azetidine-1-carboxylate] the “DIO Rat 11-day weight loss vs vehicle at indicated dose” value ([3]; DIO rat, 0.5 mpk sc, once a day for 11 days) was 4.82%, the “DIO Mouse 10-day weight loss vs vehicle” value ([2]; DIO mouse, 0.1 mpk sc, once a day for 10 days) was 2% and the “DIO Mouse 10-day weight loss vs vehicle” value ([2]; DIO mouse, 0.3 mpk sc, once a day for 10 days, 0.3 mg/kg) was 10.8% and 0.8%.
`CO[C@@H]1[C@H](OC(=O)N2CC(OC(=O)N3CCN(CC(F)(F)F)CC3)C2)CC[C@]2(CO2)[C@H]1[C@@]1(C)O[C@@H]1CC=C(C)C` [Example 81, 1-(((3R,4S,5S,6R)-5-methoxy-4-((2R,3R)-2-methyl-3-(3-methylbut-2-enyl)oxiran-2-yl)-1-oxaspiro[2.5]octan-6-yloxy)carbonyl)azetidin-3-yl 4-(2,2,2-trifluoroethyl)piperazine-1-carboxylate] was tested, and the “Rat Embryofetal @6 mpk” value [1] was “Positive”.
`CO[C@@H]1[C@H](OC(=O)N2CC(OC(=O)N3CCN(C)CC3)C2)CC[C@]2(CO2)[C@H]1[C@@]1(C)O[C@@H]1CC=C(C)C` [Example 78, 1-(((3R,4S,5S,6R)-5-methoxy-4-((2R,3R)-2-methyl-3-(3-methylbut-2-enyl)oxiran-2-yl)-1-oxaspiro[2.5]octan-6-yloxy)carbonyl)azetidin-3-yl 4-methylpiperazine-1-carboxylate] was tested, and the “Rat Embryofetal @6 mpk” value [1] was “Positive”.
For `CCN(CC)CCCC1CN(C(=O)O[C@@H]2CC[C@]3(CO3)[C@@H]([C@@]3(C)O[C@@H]3CC=C(C)C)[C@@H]2OC)C1` [Example 104, (3R,4S,5S,6R)-5-methoxy-4-((2R,3R)-2-methyl-3-(3-methylbut-2-enyl)oxiran-2-yl)-1-oxaspiro[2.5]octan-6-yl 3-(3-(diethylamino)propyl)azetidine-1-carboxylate], the “Rat Embryofetal @6 mpk” value [1] was “Positive”.
With `CO[C@@H]1[C@H](OC(=O)N2CC(Cc3ccc(C)nc3)C2)CC[C@]2(CO2)[C@H]1[C@@]1(C)O[C@@H]1CC=C(C)C` [Example 101, (3R,4S,5S,6R)-5-methoxy-4-((2R,3R)-2-methyl-3-(3-methylbut-2-enyl)oxiran-2-yl)-1-oxaspiro[2.5]octan-6-yl 3-((6-methylpyridin-3-yl)methyl)azetidine-1-carboxylate] the “Rat Embryofetal @6 mpk” value [1] was “Positive”.
In the case of `CO[C@@H]1[C@H](OC(=O)N2CC(CCN3CCOCC3)C2)CC[C@]2(CO2)[C@H]1[C@@]1(C)O[C@@H]1CC=C(C)C` [Example 1, (3R,4S,5S,6R)-5-methoxy-4-((2R,3R)-2-methyl-3-(3-methylbut-2-en-1-yl)oxiran-2-yl)-1-oxaspiro[2.5]octan-6-yl 3-(2-morpholinoethyl)azetidine-1-carboxylate], the “Rat Embryofetal @6 mpk” value [1] is reported as “Negative”.
With `CO[C@@H]1[C@H](OC(=O)N2CC(CCN3CC4CCC(C3)O4)C2)CC[C@]2(CO2)[C@H]1[C@@]1(C)O[C@@H]1CC=C(C)C` [Example 33, (4S,5S,6R)-5-methoxy-4-((2R,3R)-2-methyl-3-(3-methylbut-2-enyl)oxiran-2-yl)-1-oxaspiro[2.5]octan-6-yl 3-(2-(8-oxa-3-azabicyclo[3.2.1]octan-3-yl)ethyl)azetidine-1-carboxylate] the percent body weight loss vs vehicle at 0.3 mg/kg ([2]; 240 h, DIO mouse, 0.3 mpk sc, once a day for 10 days, read-out: DIO Mouse 10-day weight loss vs vehicle at indicated dose) was 15.9%.
For `CCN(CC)CCNC(=O)CCC1CN(C(=O)O[C@@H]2CC[C@]3(CO3)[C@@H]([C@@]3(C)O[C@@H]3CC=C(C)C)[C@@H]2OC)C1` [Example 88, (3R,4S,5S,6R)-5-methoxy-4-((2R,3R)-2-methyl-3-(3-methylbut-2-enyl)oxiran-2-yl)-1-oxaspiro[2.5]octan-6-yl 3-(3-(2-(diethylamino)ethylamino)-3-oxopropyl)azetidine-1-carboxylate formate], the “DIO Rat 11-day weight loss vs vehicle at indicated dose” value ([3]; rat, in vivo, sc, 0.3 mg/kg) was 4.4%, the “Rat Embryofetal @6 mpk” value [1] was “Positive” and the “DIO Mouse 10-day weight loss vs vehicle” value ([2]; mouse, in vivo, sc, 0.3 mg/kg) was 9%.
